Among the data in PubChem BioAssay (NCI) are TGI values, retold here.

One test concerns SN12K1 renal. Nature of the test: NCI tumour cell line growth inhibition, 48 h.
In the next test the test system is P388 leukemia. Briefly: NCI tumour cell line growth inhibition, 48 h.

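How tested: cells in 96-well plates exposed to compound for 48 hours at five concentrations. Definition used: TGI = concentration required for complete inhibition of growth.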

As to `C=C1C(C)C2C(Cc3ccccc3)NC(=O)C23C(OC(C)=O)C=CC(C)(O)C(=O)C(C)C/C=C/C3C1O` (stereo unspecified), the TGI stood at 58.3 µM in the test with SN12K1 renal and 51.7 µM in the test with P388 leukemia.
For `COc1cc(C2c3cc4c(cc3[C@@H](Nc3ccc(F)cc3)C3COC(=O)[C@H]23)OCO4)cc(OC)c1O` (stereo partly specified), the TGI in the test with SN12K1 renal turned out to be 12.2 µM; with P388 leukemia, 1.61 µM.
For `COc1cc([C@@H]2c3cc4c(cc3[C@@H](OC3OC5COC(C)OC5C(O)C3O)[C@H]3COC(=O)[C@H]23)OCO4)cc(OC)c1O` (stereo partly specified), in that order: 66.6 µM and 9.88 µM.
